# Test results taken from ChEMBL document CHEMBL1201862, “PubChem BioAssay data set” (2004).
# The source made the active and inactive calls.
# Legend:
# [1] = target: T1, Tyrosine-protein phosphatase non-receptor type 22 (Homo sapiens, UniProt Q9Y2R2); test: LYP1 Fluorescent Assay using OMFP substrate for In Vitro dose response studies. [Related pubchem assays (depositor defined):AID1779, AID1784, AID435024]
# T1 sequence (Q9Y2R2 whole entry): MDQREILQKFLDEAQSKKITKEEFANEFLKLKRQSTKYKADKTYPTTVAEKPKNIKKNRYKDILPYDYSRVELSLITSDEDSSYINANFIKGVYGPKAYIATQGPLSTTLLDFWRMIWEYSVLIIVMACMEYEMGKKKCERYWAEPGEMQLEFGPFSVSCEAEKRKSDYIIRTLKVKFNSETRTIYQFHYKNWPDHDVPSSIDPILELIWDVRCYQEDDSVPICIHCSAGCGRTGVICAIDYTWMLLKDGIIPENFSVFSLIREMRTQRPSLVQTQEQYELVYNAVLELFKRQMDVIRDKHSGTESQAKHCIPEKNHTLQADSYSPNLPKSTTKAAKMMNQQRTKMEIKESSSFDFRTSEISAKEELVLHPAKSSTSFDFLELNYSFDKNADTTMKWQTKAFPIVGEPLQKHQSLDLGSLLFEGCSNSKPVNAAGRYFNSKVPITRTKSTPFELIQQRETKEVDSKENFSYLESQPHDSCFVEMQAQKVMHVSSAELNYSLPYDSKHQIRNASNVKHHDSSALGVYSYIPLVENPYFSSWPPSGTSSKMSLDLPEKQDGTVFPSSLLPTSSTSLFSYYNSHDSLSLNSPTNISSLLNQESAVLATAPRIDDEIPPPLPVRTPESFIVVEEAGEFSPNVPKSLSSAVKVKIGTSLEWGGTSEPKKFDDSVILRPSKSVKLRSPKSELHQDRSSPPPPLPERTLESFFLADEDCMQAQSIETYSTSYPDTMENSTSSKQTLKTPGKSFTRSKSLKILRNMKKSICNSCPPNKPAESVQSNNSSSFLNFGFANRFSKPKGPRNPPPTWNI
# [2] = target: 26S proteasome non-ATPase regulatory subunit 14 (Homo sapiens, UniProt O00487); test: inhibition of proteasome subunit RPN11 – biochemical, fluorescence polarization, uHTS hits, confirmation (AID 602368); format: functional
# Prothrombin = Prothrombin (Bos taurus, UniProt P00735); test: thrombin protease inhibitors – biochemical, fluorescence polarization, uHTS hits, dose response (AID 602369); format: functional
# [3] = target: T1, Tyrosine-protein phosphatase non-receptor type 22; format: functional
# [4] = target: T2, Tyrosine-protein phosphatase non-receptor type 7 (Homo sapiens, UniProt P35236); format: functional
# T2 sequence (P35236 whole entry): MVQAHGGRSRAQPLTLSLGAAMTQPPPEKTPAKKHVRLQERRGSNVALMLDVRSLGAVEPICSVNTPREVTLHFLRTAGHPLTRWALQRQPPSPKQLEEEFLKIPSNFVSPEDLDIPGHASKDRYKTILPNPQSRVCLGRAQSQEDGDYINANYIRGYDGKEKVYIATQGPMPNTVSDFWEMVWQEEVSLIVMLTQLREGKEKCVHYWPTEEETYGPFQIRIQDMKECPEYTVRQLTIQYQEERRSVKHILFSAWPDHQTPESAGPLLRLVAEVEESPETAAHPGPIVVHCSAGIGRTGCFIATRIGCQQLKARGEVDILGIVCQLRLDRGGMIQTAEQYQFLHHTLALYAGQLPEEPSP
# [5] = target: T1, Tyrosine-protein phosphatase non-receptor type 22; test: PTPN22 lymphoid phosphatase activity blockers – biochemical, fluorescence intensity, uHTS (AID 1779)
# [6] = target: 72 kDa type IV collagenase (Homo sapiens, UniProt P08253); test: Dose Response validation of uHTS RPN11 inhibitor hits using a MMP-2 Fluorescence assay.; format: functional
# [7] = target: T1, Tyrosine-protein phosphatase non-receptor type 22; format: functional; remark: listed apart in the source
# [8] = target: Guanyl-specific ribonuclease T1 (Aspergillus oryzae (strain ATCC 42149 / RIB 40), UniProt P00651); test: inhibition of ribonuclease T1 activity – biochemical, fluorescence polarization, 1536-well, counter-screen for TPT1 inhibitor project, dose response (AID 2167)
# [9] = target: Likely tRNA 2'-phosphotransferase (Candida albicans (strain SC5314 / ATCC MYA-2876) (Yeast), UniProt Q5A7N4); test: inhibition of Candida TPT1 enzyme activity – biochemical, fluorescence polarization, dose response (AID 2160)
# [10] = target: Peroxisome proliferator-activated receptor gamma/Nuclear receptor corepressor 2 (Homo sapiens, UniProt P37231+Q9Y618); test: Counterscreen for NR2E3 inverse agonists: TR-FRET-based biochemical high throughput dose response assay to identify inverse agonists of the interaction between peroxisome proliferator-activated receptor gamma (PPARg) and nuclear receptor co-repressor 2 (NCOR2).; format: functional
# Major prion protein = Major prion protein (Homo sapiens, UniProt P04156); format: functional, cell-based
# [11] = target: T2, Tyrosine-protein phosphatase non-receptor type 7; test: HTS HePTP Fluorescent Assay using OMFP substrate for In Vitro dose response studies. [Related pubchem assays (depositor defined):AID1059, AID1077, AID1784, AID2068, AID2085, AID435032, AID521]; format: functional
# [12] = target: Photoreceptor-specific nuclear receptor (Homo sapiens, UniProt Q9Y5X4); test: ligands suppressing NR2E3 nuclear receptor activity – biochemical, TR-FRET, dose response (AID 463256); format: functional
# [13] = target: T3, Serine/threonine-protein phosphatase (Homo sapiens, UniProt Q9BPW0); test: Counterscreen for inhibitors of PP1: fluorescence-based biochemical high throughput dose response assay to identify inhibitors of Protein Phosphatase 5 (PP5). [Related pubchem assays: 2034 (Summary (PP5 inhibitors)), 1987 (PP5 inhibitors in singlate), 2235 (PP1 inhibitors in singlate)]
# T3 sequence (Q9BPW0 whole entry): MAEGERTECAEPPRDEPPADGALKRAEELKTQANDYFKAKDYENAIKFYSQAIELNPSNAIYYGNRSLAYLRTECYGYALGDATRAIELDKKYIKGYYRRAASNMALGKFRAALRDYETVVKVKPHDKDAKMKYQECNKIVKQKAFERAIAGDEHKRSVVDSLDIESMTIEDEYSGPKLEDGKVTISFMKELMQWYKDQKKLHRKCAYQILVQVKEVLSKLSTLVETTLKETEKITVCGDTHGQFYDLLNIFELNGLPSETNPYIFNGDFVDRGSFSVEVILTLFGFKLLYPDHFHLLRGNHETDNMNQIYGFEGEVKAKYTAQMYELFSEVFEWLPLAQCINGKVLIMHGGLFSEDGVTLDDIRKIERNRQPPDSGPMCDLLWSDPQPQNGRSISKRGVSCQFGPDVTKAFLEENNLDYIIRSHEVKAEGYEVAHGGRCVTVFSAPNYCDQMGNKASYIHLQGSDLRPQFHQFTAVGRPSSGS
# [14] = target: Serine/threonine-protein phosphatase PP1-alpha catalytic subunit (Homo sapiens, UniProt P62136); test: inhibition of protein phosphatase 1 activity – biochemical, fluorescence, dose response (AID 2403);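 note: phosphatase turnover of OMFP into fluorescent 3-O-methylfluorescein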
# Cannabinoid receptor 2 [15] = target: T4, Cannabinoid receptor 2 (Homo sapiens, UniProt P34972); test: SAR analysis of antagonists of the Cannabinoid Receptor 2 using an Image-Based Assay - Set 2. [Related pubchem assays (depositor defined):AID1961, AID1965]; format: functional
# Cannabinoid receptor 1 = Cannabinoid receptor 1 (Homo sapiens, UniProt P21554); test: SAR analysis of antagonists of the Cannabinoid Receptor 1 using an Image-Based Assay. [Related pubchem assays (depositor defined):AID1961, AID1965]; format: functional
# Cannabinoid receptor 2 [16] = target: T4, Cannabinoid receptor 2; test: SAR analysis of agonists of the Cannabinoid Receptor 2 using an Image-Based Assay - Set 2. [Related pubchem assays (depositor defined):AID1961, AID1965]; format: functional
# [17] = target: T5, G-protein coupled receptor 55 (Homo sapiens, UniProt Q9Y2T6); test: selective activators of receptor GPR55 – imaging, U2OS cells, beta-arrestin-GFP redistribution, primary screen (AID 1961); format: functional
# [18] = target: T5, G-protein coupled receptor 55; test: SAR analysis of selective Agonists of GPR55 using an Image-Based Assay. [Related pubchem assays (depositor defined):AID1961, AID1965]; format: functional
structure (smiles),measurement,setting,value
COc1ccc(Cl)cc1C(=O)Nc1cccc(-c2ccc3nncn3n2)c1,IC50,[1],> 99 µM (inactive)
same,IC50,[2],12 µM (active)
same,IC50,Prothrombin,30.2 µM (active)
same,IC50,[3],38.5 µM (active)
same,IC50,[4],48.7 µM (active)
same,IC50,[5],50.8 µM (active)
same,IC50,[6],8.37 µM (active)
same,IC50,cells,> 138 µM (inactive)
same,IC50,[7],16 µM (active)
same,IC50,[8],7.18 µM (active)
same,IC50,[9],5.93 µM (active)
same,IC50,[10],5.06 µM (active)
same,IC50,Major prion protein,9.03 µM (active)
same,IC50,[11],37.9 µM (active)
same,IC50,[12],2.86 µM (active)
same,IC50,[13],> 67 µM (not active)
same,IC50,[14],6.56 µM (active)
CC(C)Oc1ccc(S(=O)(=O)N2CCOCC2)cc1NC(=O)c1ccc(N2CCCC2=O)cc1,IC50,Cannabinoid receptor 2 [15],> 32 µM (inactive)
same,IC50,Cannabinoid receptor 1,> 32 µM (inactive)
same,EC50,Cannabinoid receptor 2 [16],> 32 µM (inactive)
same,EC50,[17],0.969 µM (active)
same,EC50,[18],0.88 µM (active)
